Reference: patent US20230332103A1, “Methods and Compositions for Generating Human Forebrain Neural Progenitor Cells and for Maturation Thereof to Parvalbumin+ Interneurons” (Trailhead Biosystems Inc., priority 2021, published 2023)

How the values were obtained:
[1] = system: human pluripotent stem cells; assay: additional HD-DoE experiment for stage 1 (forebrain differentiation from pluripotency), optimized for FEZF2; type: cell-based; details: for impact on expression of FEZF2: dynamic profile, FIG. 6; for factor contribution on expression of FEZF2: positive impact, additional stage 1 experiment optimized for FEZF2, FIG. 5
Experimental: To identify the recipe for stage 1 of differentiation, 96 different combinations of effectors generated using Design-of-Experiments compression through D-optimality were robotically prepared. The effector combinations were prepared in a basal media and were subsequently added to the cells, which were then allowed to differentiate. Three days later RNA extraction was performed, and gene expression was obtained using quantitative PCR analysis. The data were normalized and modeled using partial least squares regression analysis to the effector design, resulting in the generation of gene-specific models, which after model tuning for maximal Q2 predictive power, provided explanation of the effectors ability to control the expression of individual genes, combinatorially, and individually. Solutions within the tested space could then be explored to address desirability.
To further enhance the conditions for forebrain differentiation from pluripotency, an additional HD-DoE experiment was performed. Additional gene regulatory models were obtained that were used for preparation of the differentiation protocol. The factors in this experiment included LDN193189, PD173074, BLU9931, Purmorphamine, SC79, MK2206, ZM336372, PD0325901, CHIR99021, XAV939, UCLA-GP130, Tofacitinib and GO6983. […] Dynamic profile analysis was also used to assess the interaction between the effectors.

[2] = system: forebrain-committed neural stem cells (stage 1 neural stem cells); assay: HD-DoE 12-factor experiment for stage 2 recipe, optimized for NKX2-1; type: cell-based, human; details: model maximized for NKX2-1 / dynamic profile, FIG. 7 and 8
Procedure, shortened: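 Forebrain-committed neural stem cells treated for 3 days after stage 1 with combinations of 12 factors (LDN193189, BMP7, PD0325901, MK2206, A8301, XAV939, CHIR99021, purmorphamine, SANT-1, AGN193109, TTNPB, GSI-XX). Response scored as maximal NKX2-1 and minimal PAX6 expression.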

[3] = system: human pluripotent stem cells; assay: factor criticality analysis (dynamic profile analysis) of stage 1 recipe; type: cell-based; set-up: unit not given here; details: other five factors present; for expression level of FEZF2 when the effector is removed: 2000 with all six factors; for expression level of SIX3 when the effector is removed: 3000 with all six factors; for expression level of OTX2 when the effector is removed: 5500 with all six factors
Experimental: (§1) To assess the impact of the elimination of each validated factor, dynamic profile analysis was used and compared the expression level of genes of interest in absence of each finalized factor while others are present.
In the stage 1 recipe, each of the six finalized factors were removed individually while the other five factors were present and expression levels of forebrain genes was assessed compared to the presence of all six factors together. The results are summarized in FIG. 11A-B. When LDN193189 was removed, expression levels of FEZF2, OTX2 and SIX3 were decreased drastically from 2000 to 1000, 5500 to 4000 and 3000 to 0, respectively. […] When Purmorphamine was removed, levels of FEZF2 and SIX3 were decreased to 1000 and below 3000, while levels of OTX2 increased to 6500.

[4] = system: forebrain-committed neural stem cells (stage 1 neural stem cells); assay: factor criticality analysis (dynamic profile analysis) of stage 2 recipe; type: cell-based, human
Experimental: as §1
In the stage 2 recipe, each of the four finalized factors were removed while the other three factors remained present and expression levels of NKX2-1, PAX6 and NKX2-2 were assessed compared to presence of all four factors. The results are summarized in FIG. 13A-B. Absence of PD0325901 reduced the levels of NKX2-1 and NKX2-2 while increasing PAX6 from 5000 to 3200, 100 to 0 and 0 to 5000, respectively. […] Removing XAV939 reduced the levels of NKX2-1 from 5000 to 3000, while increasing both PAX6 and NKX2-2 to 10000 and 200, respectively. Another observation was the interaction between XAV939 and Purmorphamine. In the absence of XAV939, the impact of Purmorphamine on NKX2-1 became negative and, as it is shown in interaction plot of FIG. 14, the level of NKX2-1 is higher when both factors are present.

c1ccc2c(-c3cnn4cc(-c5ccc(N6CCNCC6)cc5)cnc34)ccnc2c1 [LDN193189]
impact on expression of FEZF2 [1]: positive impact
factor contribution on expression of FEZF2 [1]: 18
impact on expression of NKX2-1 [2]: increase its expression level
expression level of FEZF2 when the effector is removed [3]: 1000
expression level of SIX3 when the effector is removed [3]: 0
expression level of OTX2 when the effector is removed [3]: 4000
expression level of PAX6 in the absence of the effector ([4]; stage 2 recipe, other three factors present, 0 with all four factors): below 0
expression level of NKX2-2 in the absence of the effector ([4]; stage 2 recipe, other three factors present, 100 with all four factors): below 0
expression level of NKX2-1 in the absence of the effector ([4]; stage 2 recipe, other three factors present, 5000 with all four factors): did not significantly change

c1ccc2c(Oc3nc(Nc4ccc(N5CCOCC5)cc4)c4ncn(C5CCCCC5)c4n3)cccc2c1 [Purmorphamine]
impact on expression of FEZF2 [1]: positive impact
factor contribution on expression of FEZF2 [1]: 11
impact on expression of NKX2-1 [2]: increase its expression level
expression level of FEZF2 when the effector is removed [3]: 1000
expression level of SIX3 when the effector is removed [3]: below 3000
expression level of OTX2 when the effector is removed [3]: 6500
impact on NKX2-1 in the absence of XAV939 ([4]; interaction between XAV939 and Purmorphamine, FIG. 14): negative
